Measurements: patent US9999664B2, “HIV-1 gp120 mini V3 loop and uses thereof” (The Scripps Research Institute, priority 2011, dated 2018)

Experiments:
[1] = test system: PGT 128; test: Neoglycolipid microarray binding, PGT 128; details: PGT 128 at 10 μg/ml pre-complexed with biotinylated anti-human-IgG; 5 fmol/spot
Procedure: (§1) The microarrays (designated N-glycan-related Array Set 1) consisted of NGLs prepared by reductive amination (70) or oxime ligation (71) (Table S5). These were robotically printed onto nitrocellulose-coated glass slides as described (72), each at two levels (2 and 5 fmol/spot) in duplicate. The binding assays (70) were performed at ambient temperature. The PGTs 127 and 128 were pre-complexed with biotinylated anti-human-IgG (Vector) at a 1:3 ratio, w/w, before applying onto the slides at a final concentration of 10 μg/ml. Biotinylated ConA (Vector) was tested at 0.5 μg/ml. Binding was detected with Alexa-Fluor 647 labelled streptavidin (Molecular Probes) at 1 μg/ml. Microarray data analysis was performed with dedicated software. Binding signals were oligosaccharide dose-related. Results at 5 fmol/spot with selected oligomannose NGLs (prepared by reductive amination) are in FIG. 9A, and the full data with the 50 NGLs are shown in Table S6. Included for comparison are the results with human 2G12 (Polymun Scientific) taken from an earlier experiment performed using a different version of microarrays (73). Antibody 2G12 was analyzed at 1:10000 dilution (without pre-complexation), and the binding was detected with biotinylated anti-human-IgG followed by Alexa-Fluor 647 labelled streptavidin.

[2] = test system: PGT 127; test: Neoglycolipid microarray binding, PGT 127; details: PGT 127 at 10 μg/ml pre-complexed with biotinylated anti-human-IgG; 5 fmol/spot
Procedure: as §1

[3] = target: T1, plant lectin ConA (Canavalia ensiformis, UniProt P02866); test: Neoglycolipid microarray binding, ConA; details: biotinylated ConA at 0.5 μg/ml
T1 construct: purchased Vector
Procedure: as §1

[4] = test system: 2G12; details: 2G12 at 1:10000 dilution; earlier experiment, different version of the microarray; cited from earlier work
[5] = target: HIV-1 JR-FL envelope (Env) on pseudovirus (HIV-1 JR-FL); test: cell-based or functional assay
[6] = target: HIV-1 BaL envelope (Env) on pseudovirus (HIV-1 BaL); test: cell-based or functional assay
[7] = target: HIV-1 JR-CSF envelope (Env) on pseudovirus (HIV-1 JR-CSF) (UniProt P20871); test: cell-based or functional assay

Compound | Fluorescence signal intensity 128 [1] | Fluorescence signal intensity 127 [2] | Fluorescence signal intensity ConA [3] | Fluorescence signal intensity 2G12 [4] | Fold change in neutralization (IC50 variant/IC50 WT antibody) [5] [fold] | Fold change in neutralization (IC50 variant/IC50 WT antibody) [6] [fold] | Fold change in neutralization (IC50 variant/IC50 WT antibody) [7] [fold]
CCCCCCCCCCCCCCCCOCC(COP(=O)(O)OCCNCC(NC(C)=O)C(O)C(OC1OC(CO)C(O)C(O)C1O)C(O)CO)OCCCCCCCCCCCCCCCC (centres unmarked) [Man1GN1-DH, Manβ-4GlcNAc-DH] | — (Signal less than 1) | — (Signal less than 1) | — (Signal less than 1) | 101 |  |  | 
CCCCCCCCCCCCCCCCOCC(COP(=O)(O)OCCNCC(OC1OC(CO)C(O)C(O)C1O)C(O)C(O)C(O)CO)OCCCCCCCCCCCCCCCC (stereo not drawn) [Man2(α2)-DH, Manα-2Man-DH] | — (Signal less than 1) | — (Signal less than 1) | — (Signal less than 1) | 73 |  |  | 
CCCCCCCCCCCCCCCCOCC(COP(=O)(O)OCCNCC(O)C(OC1OC(CO)C(O)C(O)C1O)C(O)C(O)CO)OCCCCCCCCCCCCCCCC (stereo not drawn) [Man2(α3)-DH, Manα-3Man-DH] | 82 | — (Signal less than 1) | — (Signal less than 1) | 136 |  |  | 
CCCCCCCCCCCCCCCCOCC(COP(=O)(O)OCCNCC(O)C(O)C(O)C(O)COC1OC(CO)C(O)C(O)C1O)OCCCCCCCCCCCCCCCC (stereo not drawn) [Man2(α6)-DH, Manα-6Man-DH] | — (Signal less than 1) | — (Signal less than 1) | 608 | 205 |  |  | 
CCCCCCCCCCCCCCCCOCC(COP(=O)(O)OCCNCC(NC(C)=O)C(O)C(OC1OC(CO)C(O)C(OC2OC(CO)C(O)C(O)C2O)C1O)C(O)CO)OCCCCCCCCCCCCCCCC (centres unmarked) [Man2GN1-DH, Manα-3Manβ-4GlcNAc-DH] | 16 | — (Signal less than 1) | 575 | — (Signal less than 1) |  |  | 
CCCCCCCCCCCCCCCCOCC(COP(=O)(O)OCCNCC(NC(C)=O)C(O)C(OC1OC(CO)C(OC2OC(COC3OC(CO)C(O)C(O)C3O)C(O)C(O)C2O)C(O)C1NC(C)=O)C(O)CO)OCCCCCCCCCCCCCCCC (centres unmarked) [Man2aGN2-DH, Manα-6Manβ-4GlcNAcβ-4GlcNAc-DH] | — (Signal less than 1) | — (Signal less than 1) | 1,923 | — (Signal less than 1) |  |  | 
CCCCCCCCCCCCCCCCOCC(COP(=O)(O)OCCNCC(O)C(OC1OC(CO)C(O)C(O)C1O)C(O)C(O)COC1OC(CO)C(O)C(O)C1O)OCCCCCCCCCCCCCCCC (stereo not drawn) [Man3(α3,α6)-DH] | — (Signal less than 1) | — (Signal less than 1) | 759 | — (Signal less than 1) |  |  | 
CCCCCCCCCCCCCCCCOCC(COP(=O)(O)OCCNCC(NC(C)=O)C(O)C(OC1OC(CO)C(OC2OC(COC3OC(CO)C(O)C(O)C3O)C(O)C(OC3OC(CO)C(O)C(O)C3O)C2O)C(O)C1NC(C)=O)C(O)COC1OC(C)C(O)C(O)C1O)OCCCCCCCCCCCCCCCC (centres unmarked) [Man3FGN2-DH] | — (Signal less than 1) | — (Signal less than 1) | 20,011 | 52 |  |  | 
CCCCCCCCCCCCCCCCOCC(COP(=O)(O)OCCNCC(NC(C)=O)C(O)C(OC1OC(CO)C(OC2OC(COC3OC(CO)C(O)C(O)C3O)C(O)C(OC3OC(CO)C(O)C(O)C3O)C2OC2OCC(O)C(O)C2O)C(O)C1NC(C)=O)C(O)CO)OCCCCCCCCCCCCCCCC (centres unmarked) [Man3XylGN2-DH] | — (Signal less than 1) | — (Signal less than 1) | 977 | — (Signal less than 1) |  |  | 
CCCCCCCCCCCCCCCCOCC(COP(=O)(O)OCCNCC(NC(C)=O)C(O)C(OC1OC(CO)C(OC2OC(COC3OC(CO)C(O)C(O)C3O)C(O)C(OC3OC(CO)C(O)C(O)C3O)C2O)C(O)C1NC(C)=O)C(O)CO)OCCCCCCCCCCCCCCCC (centres unmarked) [Man3aGN2-DH] | — (Signal less than 1) | — (Signal less than 1) | 14,192 | 24 |  |  | 
CCCCCCCCCCCCCCCCOCC(COP(=O)(O)OCCNCC(NC(C)=O)C(O)C(OC1OC(CO)C(OC2OC(COC3OC(CO)C(O)C(OC4OC(CO)C(O)C(O)C4O)C3O)C(O)C(OC3OC(CO)C(O)C(O)C3O)C2O)C(O)C1NC(C)=O)C(O)CO)OCCCCCCCCCCCCCCCC (centres unmarked) [Man4aGN2-DH] | 26 | — (Signal less than 1) | 2,885 | — (Signal less than 1) |  |  | 
CCCCCCCCCCCCCCCCOCC(COP(=O)(O)OCCNCC(NC(C)=O)C(O)C(OC1OC(CO)C(OC2OC(COC3OC(COC4OC(CO)C(O)C(O)C4O)C(O)C(OC4OC(CO)C(O)C(O)C4O)C3O)C(O)C(O)C2O)C(O)C1NC(C)=O)C(O)CO)OCCCCCCCCCCCCCCCC (centres unmarked) [Man4bGN2-DH] | — (Signal less than 1) | — (Signal less than 1) | 16,615 | — (Signal less than 1) |  |  | 
CCCCCCCCCCCCCCCCOCC(COP(=O)(O)OCCNCC(O)C(OC1OC(CO)C(O)C(O)C1O)C(O)C(O)COC1OC(COC2OC(CO)C(O)C(O)C2O)C(O)C(OC2OC(CO)C(O)C(O)C2O)C1O)OCCCCCCCCCCCCCCCC (stereo not drawn) [Man5(α3,α6)-DH] | — (Signal less than 1) | — (Signal less than 1) | 15,291 | 34 |  |  | 
CCCCCCCCCCCCCCCCOCC(COP(=O)(O)OCCNCC(NC(C)=O)C(O)C(OC1OC(CO)C(OC2OC(COC3OC(COC4OC(CO)C(O)C(O)C4O)C(O)C(OC4OC(CO)C(O)C(O)C4O)C3O)C(O)C(OC3OC(CO)C(O)C(O)C3O)C2O)C(O)C1NC(C)=O)C(O)CO)OCCCCCCCCCCCCCCCC (centres unmarked) [Man5GN2-DH] | — (Signal less than 1) | — (Signal less than 1) | 16,390 | — (Signal less than 1) |  |  | 
CCCCCCCCCCCCCCCCOCC(COP(=O)(O)OCCNCC(NC(C)=O)C(O)C(OC1OC(CO)C(OC2OC(COC3OC(COC4OC(CO)C(O)C(O)C4O)C(O)C(OC4OC(CO)C(O)C(O)C4O)C3O)C(O)C(OC3OC(CO)C(O)C(O)C3OC3OC(CO)C(O)C(O)C3O)C2O)C(O)C1NC(C)=O)C(O)CO)OCCCCCCCCCCCCCCCC (centres unmarked) [Man6GN2-DH] | — (Signal less than 1) | — (Signal less than 1) | 19,006 | 49 |  |  | 
CCCCCCCCCCCCCCCCOCC(COP(=O)(O)OCCNCC(NC(C)=O)C(O)C(OC1OC(CO)C(OC2OC(COC3OC(COC4OC(CO)C(O)C(O)C4OC4OC(CO)C(O)C(O)C4O)C(O)C(OC4OC(CO)C(O)C(O)C4OC4OC(CO)C(O)C(O)C4O)C3O)C(O)C(OC3OC(CO)C(O)C(O)C3OC3OC(CO)C(O)C(O)C3OC3OC(CO)C(O)C(O)C3O)C2O)C(O)C1NC(C)=O)C(O)CO)OCCCCCCCCCCCCCCCC (centres unmarked) [Man9GN2-DH] | 26,071 | 24,209 | 21,359 | 11,717 |  |  | 
Glcα-6Glcα-6Glcα-6Glcα-6Glcα-6Glc-AO [Dextran-6-AO] | — (Signal less than 1) | — (Signal less than 1) | 1,138 | — (Signal less than 1) |  |  | 
PGT 128 IgG variant LC W95A (antibody) |  |  |  |  | > 3000 | > 4000 | > 2000
